This is an account of results in US8536183B2, “3-pyridylcarbonyl-piperazinylsulfonyl derivatives” (Convergence Pharmaceuticals Limited, priority 2008, dated 2013).

Where a name gives a salt, the structure may show the parent alone.

In this experiment the target is T1, hCaV2.2 (Homo sapiens, UniProt Q00975).
T1 construct: expressed in transfected cells; plasmids pCIN5-hCaV2.2, pCIH-hCaV β3, pCIP-α2δ1
The experiment is described as follows: hCaV2.2 assay, IonWorks planar array electrophysiology in stably transfected HEK293 cells. It counts as cell-based. The settings on record: current elicited by the 1st depolarising pulse inhibited by 50%; HEK293 cells expressing human CaV2.2 alpha/beta3/alpha2delta1; read-out: mean pIC50 (tonic pIC50) (converted). On the procedure: Compounds of the invention may be tested for in vitro biological activity in the hCaV2.2 assay in accordance with the following studies:
Stable cell lines expressing the human CaV2.2 α (als) subunit, along with the human […] and α2δ1 auxiliary subunits were created following sequential transfection and selection of human embryonic kidney (HEK293) cells. HEK293 cells were cultured in Dulbecco's modified Eagles media/F12 media (Invitrogen, Cat #041-95750V) containing 10% foetal bovine serum, with added L-glutamine (2 mM; Invitrogen, Cat #25030-024) and non-essential amino acids (5%; Invitrogen, Cat #11140-035). Initially HEK293 cells were transfected with two plasmid vectors for expression of the hCaV2.2 α subunit (pCIN5-hCaV2.2 which carries a neomycin resistance marker) and the hCaV β3 subunit (pCIH-hCaV β3 which carries a hygromycin resistance marker). Clonal cell lines were isolated following selection in media supplemented with 0.4 mg ml^−1 Geneticin G418 (Invitrogen, Cat #10131-027) and 0.1 mg ml^1 hygromycin (Invitrogen, Cat #10687-010). These clonal cell lines were assessed for Cav2.2α/β3-mediated current expression using the IonWorks planar array electrophysiology technology (described below). A clonal line was identified that gave a reasonable level of functional Cav2.2α/β3 current expression. This cell line was transfected with a plasmid vector for expression of the human […] subunit (pCIP-α2δ1 which carries a puromycin resistance marker) and clonal cell lines isolated following selection in media containing 0.62 μg ml^−1 puromycin (Sigma, Cat #P-7255), in addition to 0.4 mg ml^−1 Geneticin G418 and 0.1 mg ml^−1 hygromycin. Several cell lines were identified that gave robust levels of Cav2.2α/β3/α2δ1-mediated current expression and one of these was selected for compound profiling. Expression of all three subunits within this cell line was continuously maintained by the inclusion of G418 (0.4 mg ml^−1), hygromycin (0.1 mg ml^−1) and puromycin (0.62 μg ml^−1). Cells were maintained at 37° C. in a humidified environment containing 5% CO2 in air. Cells were liberated from the T175 culture flasks for passage and harvesting using TrpLE (Invitrogen, Cat #12604-013).
Cells were grown to 30-60% confluence in T175 flasks and maintained at 30° C. for 24 hrs prior to recording. Cells were lifted by removing the growth media, washing with Ca^2+ free PBS (Invitrogen, Cat #14190-094) and incubating with 3 ml of warmed (37° C.) TrpLE (Invitrogen, Cat #12604-013) for 6 minutes. Lifted cells were suspended in 10 ml of extracellular buffer. Cell suspension was then placed into a 15 ml tube and centrifuged for 2 minutes at 700 rpm. After centrifugation, the supernatant was removed and the cell pellet was resuspended in 4.5 ml of extracellular solution.
Currents were recorded at room temperature (21-23° C.) using the IonWorks planar array electrophysiology technology (Molecular Devices Corp.). Stimulation protocols and data acquisition were carried out using a microcomputer (Dell Pentium 4). In order to determine planar electrode hole resistances (Rp), a 10 mV, 160 ms potential difference was applied across each hole. These measurements were performed before cell addition. After cell addition a seal test was performed prior to antibiotic (amphotericin) circulation to achieve intracellular access. Leak subtraction was conducted in all experiments by applying a 160 ms hyperpolarizing (10 mV) prepulse 200 ms before the test pulses to measure leak conductance. Test pulses stepping from the holding potential (VH) of −90 mV to +10 mV were applied for 20 ms and repeated 10 times at a frequency of 10 Hz. In all experiments, the test pulse protocol was performed in the absence (pre-read) and presence (post-read) of a compound. Pre- and post-reads were separated by a compound addition followed by a 3-3.5 min incubation.
The intracellular solution contained the following (in mM): K-gluconate 120, KCl 20 mM, MgCl2 5, EGTA 5, HEPES 10, adjusted to pH 7.3. […]

T1 sequence (Q00975 whole entry): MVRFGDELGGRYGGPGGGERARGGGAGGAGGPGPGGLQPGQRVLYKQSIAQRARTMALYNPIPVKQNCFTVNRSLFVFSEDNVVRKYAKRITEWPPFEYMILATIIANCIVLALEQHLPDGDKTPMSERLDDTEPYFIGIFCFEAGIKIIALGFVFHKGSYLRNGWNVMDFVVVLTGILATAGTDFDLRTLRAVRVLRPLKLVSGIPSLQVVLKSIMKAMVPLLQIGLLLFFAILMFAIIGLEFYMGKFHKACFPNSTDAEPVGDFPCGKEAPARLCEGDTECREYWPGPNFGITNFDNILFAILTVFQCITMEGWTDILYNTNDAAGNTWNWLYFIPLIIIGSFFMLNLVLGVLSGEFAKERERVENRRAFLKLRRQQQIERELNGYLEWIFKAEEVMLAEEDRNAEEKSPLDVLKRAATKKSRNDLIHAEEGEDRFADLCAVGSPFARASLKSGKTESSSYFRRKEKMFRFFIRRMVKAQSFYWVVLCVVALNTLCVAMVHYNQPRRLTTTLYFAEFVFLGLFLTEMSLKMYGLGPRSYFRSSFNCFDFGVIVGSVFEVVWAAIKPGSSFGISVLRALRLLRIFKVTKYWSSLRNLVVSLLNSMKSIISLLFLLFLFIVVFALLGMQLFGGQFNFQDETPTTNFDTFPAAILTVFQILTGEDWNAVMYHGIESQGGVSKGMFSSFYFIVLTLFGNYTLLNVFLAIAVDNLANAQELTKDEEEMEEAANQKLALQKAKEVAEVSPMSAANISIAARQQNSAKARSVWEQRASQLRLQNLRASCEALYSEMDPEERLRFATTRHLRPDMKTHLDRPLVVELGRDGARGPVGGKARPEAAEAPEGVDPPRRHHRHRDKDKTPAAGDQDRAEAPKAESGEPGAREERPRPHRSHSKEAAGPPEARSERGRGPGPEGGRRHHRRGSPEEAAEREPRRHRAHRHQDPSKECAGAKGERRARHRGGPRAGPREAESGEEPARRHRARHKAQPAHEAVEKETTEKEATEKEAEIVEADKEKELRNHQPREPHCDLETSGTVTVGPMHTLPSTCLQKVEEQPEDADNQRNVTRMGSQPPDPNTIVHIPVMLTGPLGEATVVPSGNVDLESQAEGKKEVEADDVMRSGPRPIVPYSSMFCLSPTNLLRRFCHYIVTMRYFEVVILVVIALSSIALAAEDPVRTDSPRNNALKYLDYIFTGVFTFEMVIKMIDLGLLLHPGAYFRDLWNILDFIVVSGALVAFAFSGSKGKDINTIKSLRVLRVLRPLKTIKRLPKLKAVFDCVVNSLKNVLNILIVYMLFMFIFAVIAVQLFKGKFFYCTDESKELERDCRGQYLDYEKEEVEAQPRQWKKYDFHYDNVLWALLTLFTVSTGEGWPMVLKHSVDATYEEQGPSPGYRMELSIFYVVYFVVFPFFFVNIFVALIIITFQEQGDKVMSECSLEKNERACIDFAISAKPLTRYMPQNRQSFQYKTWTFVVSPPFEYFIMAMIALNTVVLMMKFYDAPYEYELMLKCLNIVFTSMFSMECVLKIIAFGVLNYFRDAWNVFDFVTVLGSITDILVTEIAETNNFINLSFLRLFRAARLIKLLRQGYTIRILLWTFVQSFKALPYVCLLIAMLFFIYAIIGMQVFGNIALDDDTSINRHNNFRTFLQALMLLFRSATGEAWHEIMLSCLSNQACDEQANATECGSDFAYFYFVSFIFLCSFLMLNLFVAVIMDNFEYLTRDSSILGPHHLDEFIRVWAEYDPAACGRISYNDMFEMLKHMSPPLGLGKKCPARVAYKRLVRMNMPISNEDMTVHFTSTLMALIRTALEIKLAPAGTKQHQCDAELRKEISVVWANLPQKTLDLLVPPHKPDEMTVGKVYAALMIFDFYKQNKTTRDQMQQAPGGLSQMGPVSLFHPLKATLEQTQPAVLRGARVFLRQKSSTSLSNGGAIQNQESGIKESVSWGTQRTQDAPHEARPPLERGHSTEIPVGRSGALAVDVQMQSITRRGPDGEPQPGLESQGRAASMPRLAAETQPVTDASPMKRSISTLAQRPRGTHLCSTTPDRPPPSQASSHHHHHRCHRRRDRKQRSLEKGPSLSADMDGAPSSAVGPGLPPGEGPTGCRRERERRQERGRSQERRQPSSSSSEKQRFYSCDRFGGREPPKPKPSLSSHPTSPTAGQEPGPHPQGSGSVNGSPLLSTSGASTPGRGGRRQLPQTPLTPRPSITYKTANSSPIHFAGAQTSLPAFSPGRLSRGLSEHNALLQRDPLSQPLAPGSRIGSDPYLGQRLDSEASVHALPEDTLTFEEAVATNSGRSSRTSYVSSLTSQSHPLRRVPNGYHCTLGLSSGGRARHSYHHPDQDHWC

As to `Cc1ccc(C(=O)N2CCN(S(=O)(=O)c3ccc(C(F)(F)F)cc3)C[C@@H]2C)cn1` [Example 1, (2S)-2-Methyl-1-[(6-methyl-3-pyridinyl)carbonyl]-4-{[4-(trifluoromethyl)phenyl]sulfonyl}piperazine], the IC50 is at least 31.6 µM.

Regarding `Cc1ncccc1C(=O)N1CCN(S(=O)(=O)c2ccc(C(F)(F)F)cc2)C[C@@H]1C` [Example 2, (2S)-2-Methyl-1-[(2-methyl-3-pyridinyl)carbonyl]-4-{[4-(trifluoromethyl)phenyl]sulfonyl}piperazine hydrochloride], the IC50 is at least 31.6 µM.

As for `O=C(c1cccnc1)N1CCN(S(=O)(=O)c2ccc(C(F)(F)F)cc2)CC1` [Example 3, 1-(3-Pyridinylcarbonyl)-4-{[4-(trifluoromethyl)phenyl]sulfonyl}piperazine], the IC50 was at least 31.6 µM.

For `Cc1ccc(C(=O)N2CCN(S(=O)(=O)c3ccc(C(F)(F)F)cc3)CC2)cn1` [Example 4, 1-[(6-Methyl-3-pyridinyl)carbonyl]-4-{[4-(trifluoromethyl)phenyl]sulfonyl}piperazine], the IC50 is at least 31.6 µM.

Consider `Cc1ncccc1C(=O)N1CCN(S(=O)(=O)c2ccc(C(F)(F)F)cc2)CC1` [Example 5, 1-[(2-Methyl-3-pyridinyl)carbonyl]-4-{[4-(trifluoromethyl)phenyl]sulfonyl}piperazine], for which the IC50 was at least 31.6 µM.

As for `O=C(c1ccc(N2CCOCC2)nc1)N1CCN(S(=O)(=O)c2ccc(C(F)(F)F)cc2)CC1` [Example 6, 4-{5-[(4-{[4-(Trifluoromethyl)phenyl]sulfonyl}-1-piperazinyl)carbonyl]-2-pyridinyl}morpholine], the IC50 is at least 31.6 µM.

With `C[C@H]1CN(C(=O)c2ccc(N3CCOCC3)nc2)CCN1S(=O)(=O)c1ccc(Cl)cc1` [Example 7, 4-[5-({(3S)-4-[(4-Chlorophenyl)sulfonyl]-3-methyl-1-piperazinyl}carbonyl)-2-pyridinyl]morpholine], the IC50 was at least 31.6 µM.

Regarding `Cc1ccc(C(=O)N2CCN(S(=O)(=O)c3ccc(Cl)cc3)[C@@H](C)C2)cn1` [Example 8, (2S)-1-[(4-Chlorophenyl)sulfonyl]-2-methyl-4-[(6-methyl-3-pyridinyl)carbonyl]piperazine], the IC50 was at least 31.6 µM.

For `Cc1ccc(C(=O)N2CCN(S(=O)(=O)c3ccc(C(F)(F)F)cc3)[C@H](C)C2)cn1` [Example 9, (2R)-2-Methyl-4-[(6-methyl-3-pyridinyl)carbonyl]-1-{[4-(trifluoromethyl)phenyl]sulfonyl}piperazine formic acid salt], the IC50 is at least 31.6 µM.

`Cc1ncccc1C(=O)N1CCN(S(=O)(=O)c2ccc(C(F)(F)F)cc2)[C@H](C)C1` [Example 10, (2R)-2-Methyl-4-[(2-methyl-3-pyridinyl)carbonyl]-1-{[4-(trifluoromethyl)phenyl]sulfonyl}piperazine formic acid salt]: the IC50 is at least 31.6 µM.

In the case of `Cc1ccc(C(=O)N2CCN(S(=O)(=O)c3ccc(C(F)(F)F)cc3)[C@@H](C)C2)cn1` [Example 11, (2S)-2-Methyl-4-[(6-methyl-3-pyridinyl)carbonyl]-1-{[4-(trifluoromethyl)phenyl]sulfonyl}piperazine formic acid salt], the IC50 is at least 31.6 µM.

For the molecule `Cc1ncccc1C(=O)N1CCN(S(=O)(=O)c2ccc(C(F)(F)F)cc2)[C@@H](C)C1` [Example 12, (2S)-2-Methyl-4-[(2-methyl-3-pyridinyl)carbonyl]-1-{[4-(trifluoromethyl)phenyl]sulfonyl}piperazine formic acid salt], the IC50 was at least 31.6 µM.

Regarding `C[C@H]1CN(S(=O)(=O)c2ccc(C(F)(F)F)cc2)CCN1C(=O)c1ccc(C#N)nc1` [Example 13, 5-[((2S)-2-Methyl-4-{[4-(trifluoromethyl)phenyl]sulfonyl}-1-piperazinyl)carbonyl]-2-pyridinecarbonitrile], the IC50 was at least 31.6 µM.

With `COc1ccc(C(=O)N2CCN(S(=O)(=O)c3ccc(C(F)(F)F)cc3)C[C@@H]2C)cn1` [Example 14, (2S)-2-Methyl-1-{[6-(methyloxy)-3-pyridinyl]carbonyl}-4-{[4-(trifluoromethyl)phenyl]sulfonyl}piperazine], the IC50 was at least 31.6 µM.

For `COc1ncccc1C(=O)N1CCN(S(=O)(=O)c2ccc(C(F)(F)F)cc2)C[C@@H]1C` [Example 15, (2S)-2-Methyl-1-{[2-(methyloxy)-3-pyridinyl]carbonyl}-4-{[4-(trifluoromethyl)phenyl]sulfonyl}piperazine], the IC50 was at least 31.6 µM.

As to `Cc1cncc(C(=O)N2CCN(S(=O)(=O)c3ccc(C(F)(F)F)cc3)C[C@@H]2C)c1` [Example 16, (2S)-2-Methyl-1-[(5-methyl-3-pyridinyl)carbonyl]-4-{[4-(trifluoromethyl)phenyl]sulfonyl}piperazine], the IC50 was at least 31.6 µM.

As to `Cc1ccc(C(=O)N2CCN(S(=O)(=O)c3ccc(C#N)cc3C)C[C@@H]2C)cn1` [Example 17, 3-Methyl-4-({(3S)-3-methyl-4-[(6-methyl-3-pyridinyl)carbonyl]-1-piperazinyl}sulfonyl)benzonitrile], the IC50 was at least 31.6 µM.

Take `Cc1ccncc1C(=O)N1CCN(S(=O)(=O)c2ccc(C(F)(F)F)cc2)C[C@@H]1C` [Example 18, (2S)-2-Methyl-1-[(4-methyl-3-pyridinyl)carbonyl]-4-{[4-(trifluoromethyl)phenyl]sulfonyl}piperazine]: the IC50 was at least 31.6 µM.

On to `Cc1ccc(C(=O)N2CCN(S(=O)(=O)c3ccc(C(F)(F)F)cc3)C[C@H]2C)cn1` [Example 19, (2R)-2-methyl-1-[(6-methyl-3-pyridinyl)carbonyl]-4-{[4-(trifluoromethyl)phenyl]sulfonyl}piperazine formic acid salt (1:1)], for which the IC50 is at least 31.6 µM.

On to `Cc1ncccc1C(=O)N1CCN(S(=O)(=O)c2ccc(C(F)(F)F)cc2)C[C@H]1C` [Example 20, (2R)-2-methyl-1-[(2-methyl-3-pyridinyl)carbonyl]-4-{[4-(trifluoromethyl)phenyl]sulfonyl}piperazine formic acid salt (1:1)], for which the IC50 was at least 31.6 µM.

In the case of `Cc1ccc(C(=O)N2CCN(S(=O)(=O)c3ccc(OC(F)(F)F)cc3)C[C@@H]2C)cn1` [Example 21, (2S)-2-Methyl-1-[(6-methyl-3-pyridinyl)carbonyl]-4-({4-[(trifluoromethyl)oxy]phenyl}sulfonyl)piperazine], the IC50 was at least 31.6 µM.

Turning to `Cc1ccc(C(=O)N2CCN(S(=O)(=O)c3ccc(OC(F)F)cc3)C[C@@H]2C)cn1` [Example 22, (2S)-4-({4-[(Difluoromethyl)oxy]phenyl}sulfonyl)-2-methyl-1-[(6-methyl-3-pyridinyl)carbonyl]piperazine], the IC50 was at least 31.6 µM.

On to `Cc1ccc(C(=O)N2CCN(S(=O)(=O)c3ccc(OC(F)(F)F)cc3)CC2)cn1` [Example 23, 1-[(6-Methyl-3-pyridinyl)carbonyl]-4-({4-[(trifluoromethyl)oxy]phenyl}sulfonyl)piperazine], for which the IC50 is at least 31.6 µM.

For the molecule `Cc1nc(Cl)ccc1C(=O)N1CCN(S(=O)(=O)c2ccc(C(F)(F)F)cc2)C[C@@H]1C` [Example 24, (2S)-1-[(6-Chloro-2-methyl-3-pyridinyl)carbonyl]-2-methyl-4-{[4-(trifluoromethyl)phenyl]sulfonyl}piperazine], the IC50 was at least 10 µM.
